Experimental data: patent US20080095869A1, “Anticancer Treatment” (priority 2004, published 2008)
Like-named read-outs stand apart in the source and are kept apart here.

Experiments:
tNOX from HeLa = biological target: T1, tNOX from HeLa (Homo sapiens, UniProt Q16206); experiment: Spectrophotometric NADH oxidase assay, NOX activity from the HeLa cell surface; assay type: biochemical; details: for Response of NOX activity from the HeLa cell surface when combined with sulforaphane: sequential additions, preceding or following sulforaphane (FIGS. 7, 8)
T1 construct: The cells were thawed at room temperature, resuspended and incubated at 37° C. for 1 h to release the protein
T1 sequence (Q16206 1-610): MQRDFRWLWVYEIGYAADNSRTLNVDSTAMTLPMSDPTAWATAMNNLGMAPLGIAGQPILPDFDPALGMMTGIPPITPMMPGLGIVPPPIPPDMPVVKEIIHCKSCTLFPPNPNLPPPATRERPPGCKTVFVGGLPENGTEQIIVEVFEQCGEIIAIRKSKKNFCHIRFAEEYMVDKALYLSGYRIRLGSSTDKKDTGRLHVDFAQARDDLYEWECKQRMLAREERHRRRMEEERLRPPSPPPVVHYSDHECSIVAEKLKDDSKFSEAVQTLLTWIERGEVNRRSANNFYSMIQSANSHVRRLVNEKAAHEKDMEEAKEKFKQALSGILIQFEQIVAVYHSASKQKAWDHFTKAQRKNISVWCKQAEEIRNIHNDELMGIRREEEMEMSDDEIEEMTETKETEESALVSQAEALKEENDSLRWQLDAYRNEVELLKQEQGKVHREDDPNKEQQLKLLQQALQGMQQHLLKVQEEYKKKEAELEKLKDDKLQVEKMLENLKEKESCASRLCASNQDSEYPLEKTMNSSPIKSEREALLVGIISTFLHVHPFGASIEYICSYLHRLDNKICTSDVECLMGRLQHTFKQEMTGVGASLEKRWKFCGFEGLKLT
Method: HeLa S cells (grown in suspension) were collected by centrifugation and shipped frozen by a commercial supplier (Cellex Biosciences, Minneapolis, Minn.) In 0.1 m sodium acetate, pH 5, in a ratio of 1 mL packed cell volume to 1 mL acetate. The cells were thawed at room temperature, resuspended and incubated at 37° C. for 1 h to release the protein. The cells were removed by centrifugation at 37000 g for 60 min and the cell-free supernatants were refrozen and stored in 1 mL samples at −70° C.

non-cancer MCF-10A cells = details: compared with cancer cells
Method: (§1) Growth was determined using a 96-well plate assay as described by Lin et al. (17). HeLa (5×10^4) or CHO (10^4) cells were distributed into each plate well (Costar tissue culture plate). The cells were grown at 37° C. for 24 h after which the substances to be evaluated were added followed by incubation for an additional 48 or 72 h as indicated. Medium was removed and the cells were washed with phosphate-buffered saline and then fixed by addition of […] 2.5% (v/v) glutaraldehyde for 0.5 h followed by a distilled water wash. The cells were stained with […] 1% aqueous crystal violet for 0.5 h, washed exhaustively with distilled water followed by […] 33% (v/v) acetic acid for 5 min. The absorbance was determined at 580 nm using an automated plate reader. Growth was determined according to the formula [(b−c)×100]/(a−c)] where a=absorbance of cells in medium without treatment b=cells in medium with treatment and c=medium alone (background).

[1] = test system: CNOX activity of soybean plasma membranes; details: plasma membranes from dark-grown soybean hypocotyls, lack tNOX (FIG. 5)
Method: (§2) NADH oxidase activity was determined as the disappearance of NADH measured at 340 nm in a reaction mixture containing 25 mM Tris-Mes buffer (pH 7.2), 1 mM KCN to inhibit low levels of mitochondrial oxidase activity, and 150 ([…] NADH at 37° C. with temperature control (±0.5°) and stirring (14). Activity was measured using paired Hitachi U3210 spectrophotometers. Assays were initiated by addition of NADH. With plasma membranes and whole cells, assays were for 1 min and were repeated on the same sample every 1.5 min for the time indicated. A millimolar extinction coefficient of 6.22 was used to determine specific activity. Proteins were estimated by the bicinchoninic acid method with bovine serum albumin as standard.

[2] = biological target: CNOX of non-cancer MCF-10A human mammary epithelia (Homo sapiens, UniProt Q8TC92); details: non-cancer cells which lack tNOX (FIG. 4)
Chain of CNOX of non-cancer MCF-10A human mammary epithelia (Q8TC92 whole entry): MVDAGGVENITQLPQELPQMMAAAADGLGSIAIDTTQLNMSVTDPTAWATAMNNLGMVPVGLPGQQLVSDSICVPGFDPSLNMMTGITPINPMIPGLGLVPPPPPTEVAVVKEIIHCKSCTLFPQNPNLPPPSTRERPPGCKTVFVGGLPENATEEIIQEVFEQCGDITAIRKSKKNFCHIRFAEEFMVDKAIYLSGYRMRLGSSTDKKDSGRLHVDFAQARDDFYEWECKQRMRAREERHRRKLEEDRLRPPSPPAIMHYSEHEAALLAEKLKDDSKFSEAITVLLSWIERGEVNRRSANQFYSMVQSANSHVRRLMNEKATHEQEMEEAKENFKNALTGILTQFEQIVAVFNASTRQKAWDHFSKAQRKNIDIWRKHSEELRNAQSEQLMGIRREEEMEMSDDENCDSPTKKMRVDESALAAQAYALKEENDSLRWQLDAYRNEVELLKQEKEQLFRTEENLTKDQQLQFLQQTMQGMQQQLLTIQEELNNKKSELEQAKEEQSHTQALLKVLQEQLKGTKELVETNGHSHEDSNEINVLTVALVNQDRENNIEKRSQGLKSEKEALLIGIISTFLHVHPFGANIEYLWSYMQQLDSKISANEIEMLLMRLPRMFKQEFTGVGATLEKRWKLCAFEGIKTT
Method: as §2

HeLa cells = experiment: Growth of HeLa cells in culture (96-well crystal violet); assay type: cell-based; details: Homo sapiens, 48 and 72 h of treatment (FIG. 6), read-out: EC50 for inhibition of growth of HeLa cells
Method: HeLa (ATCC CCL-2) human cervical adenocarcinoma cells were cultured in minimal essential medium (Eagle), with 2 mM L-glutamine and Earle's balanced salt solution adjusted to contain 1.5 g/L sodium bicarbonate, 0.2 mM non-essential amino adds, 1.0 mM sodium pyruvate and supplemented with 10% bovine calf serum (heat-inactivated) plus 50 mg/L gentamycin sulfate (Sigma).
HeLa (5×10^4) or CHO (10^4) cells were distributed into each plate well (Costar tissue culture plate).

[3] = test system: human mammary cancer (BT-20) cells; experiment: cells; details: BT-20, read-out: EC50 for inhibition of growth of BT-20 cells
Method: as §1

[4] = biological target: tNOX of 4T1 mouse mammary cells (Mus musculus, UniProt Q8R0Z2); experiment: biochemical
Chain of tNOX of 4T1 mouse mammary cells (Q8R0Z2 whole entry): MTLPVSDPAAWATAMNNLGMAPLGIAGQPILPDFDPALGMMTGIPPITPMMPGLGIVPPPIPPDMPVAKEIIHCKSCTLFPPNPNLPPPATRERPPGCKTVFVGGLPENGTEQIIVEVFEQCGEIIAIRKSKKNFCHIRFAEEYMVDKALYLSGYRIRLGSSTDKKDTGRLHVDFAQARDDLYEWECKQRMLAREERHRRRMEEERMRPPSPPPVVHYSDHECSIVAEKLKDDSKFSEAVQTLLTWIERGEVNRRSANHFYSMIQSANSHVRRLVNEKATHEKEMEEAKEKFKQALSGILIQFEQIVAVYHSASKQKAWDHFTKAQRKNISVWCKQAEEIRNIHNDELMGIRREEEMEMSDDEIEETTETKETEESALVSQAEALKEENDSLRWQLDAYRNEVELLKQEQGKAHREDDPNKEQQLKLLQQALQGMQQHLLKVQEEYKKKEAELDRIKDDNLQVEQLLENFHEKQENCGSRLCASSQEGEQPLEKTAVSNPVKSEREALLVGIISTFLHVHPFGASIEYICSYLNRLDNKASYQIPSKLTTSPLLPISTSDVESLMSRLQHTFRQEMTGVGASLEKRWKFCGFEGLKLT
Method: as §2

Molecule: (−)-epigallocatechin gallate [EGCg]
- Response of NOX activity from the HeLa cell surface when combined with sulforaphane (tNOX from HeLa): antagonistic

Molecule: COc1cc(CNC(=O)CCCC/C=C/C(C)C)ccc1O [capsaicin, 8-methyl-N-vanillyl-6-noneamide]
- Response of NOX activity from the HeLa cell surface when combined with sulforaphane (tNOX from HeLa): beneficial response

Molecule: COc1cc(CN)ccc1O [vanillylamine]
- Response of NOX activity from the HeLa cell surface when combined with sulforaphane (tNOX from HeLa): beneficial response

Molecule: C[S@@+]([O-])CCCCN=C=S [L-Sulforaphane]
- Inhibition of growth of non-cancer MCF-10A cells (non-cancer MCF-10A cells): inhibited to nearly the same extent as the cancer cells
- Effect on CNOX activity of soybean plasma membranes [1]: unaffected
- Effect on CNOX activity of soybean plasma membranes ([1]; listed as Sulforaphane): does not inhibit
- Effect on CNOX (NOX activity) of MCF-10A human mammary epithelia [2]: unaffected
- Effect on CNOX (NOX activity) of MCF-10A human mammary epithelia ([2]; listed as Sulforaphane): does not inhibit
- EC50 (HeLa cells): 100 to 1000 µM
- EC50 [3]: 100 to 1000 µM
- EC50 (tNOX from HeLa; NOX activity from HeLa cell surface (FIGS. 1 and 2)): ~1000 µM
- EC50 [4]: ~1000 µM
